Source: patent US6207655A, “Bis-phosphonate confugates with alkylating moieties having antitumor activity” (Novuspharma S.p.A., priority 1997, dated 2001)

How the values were obtained:
[1] = test system: human multiple myeloma HS-Sultan cells; assay: histopathological examination of tumor infiltration in the human multiple myeloma model; format: in vivo, human cells in SCID rats; parameters: key to tumor infiltration score: -: absence of infiltration; +: slight infiltration; ++: middle to high infiltration; conditions: for tumor infiltration score: 38 days from the treatment; for effect on the tumor infiltration (in words): human multiple myeloma model
Experimental: (§1) The experiment is performed by inoculating intravenously (i.v.) the human multiple myeloma HS-Sultan cells in SCID rats (immunodeficient rats) at day 0, followed by treatment i.v. with a compound of the invention at days 15, 18 and 21.
evaluation of histological parameters (bone marrow invasion and degree of osteolytic lesions).

[2] = test system: human multiple myeloma HS-Sultan cells; assay: experimental model of human multiple myeloma HS-Sultan, mean survival time; format: in vivo, human cells in SCID rats; conditions: iv/iv, days +15, 18, 21; for TMS (MST = Mean Survival Time in days from the tumor inoculation): controls: MST 33-37; for Tox: HS-Sultan
Experimental: as §1
The activity of the compounds of the invention was evaluated in relationship with the following parameters:
Mean Survival Time (MST) in comparison with the not treated rats (which have a mean survival time of 30 days after tumor inoculation);

[3] = test system: murine breast carcinoma Walker 256/B; assay: antitumor activity in vivo against Walker 256/B implanted intratibia (TWI%); parameters: species or system murine tumor; male rats CD1; conditions: it/iv, days 1, 4, 7; for TWI % (tumor weight inhibition %): measured day 14; for Tox: Walker 256/B
Description: The compounds of the invention have been tested "in vivo" against the murine breast carcinoma Walker 256/B implanted intratibia (it). After inoculation into the bone marrow cavity of the tibia, this tumor grows inside the bone causing osteolytic lesions, paraneoplastic hypercalcaemia and by invading the surrounding tissues it forms a measurable tumor mass. It is therefore possible to determine both the antitumor activity on the extraosseous tumor and the anti-osteolytic effect (Cancer, 72(1), 91 (1993)).
The Walker 256/B tumor was provided by NCI Frederick Cancer Facility and was maintained in male rats CD1 by means of subcutaneous transplantation of tumor fragments of about 1 cm diameter every 10 days.
To perform the experiment, each rat was injected it with 2.5×10^6tumor cells; all the animals were anesthetized with a mixture of 10 mg/kg of Ketalar (Park-Davis) and 5 mg/kg of Rompun (Bayer). After implantation inside the tibia, the tumor grows causing osteolytic lesions associated with an increased activity of the osteoclasts. To obtain an injectable cell suspension, the tumor fragments were decomposed by means of enzymatic digestion with type IV collagenases (Sigma) at a concentration of 400 U/ml for 20 minutes at 37° C.
The compounds of the invention have been administered i.v. at days 1, 4 and 7 after the tumor transplantation. The extraosseous tumor mass has been measured at day 14 after tumor transplantation. The antitumor activity was determined as TWI% (tumor weight inhibition %) calculated according to the following formula:
TWI%=(100-TW meantreated animals /TW meancontrols)×100
wherein the TW for each animal is given by the formula: […]
in which a and b are respectively the maximum and minimum diameter of the tumor mass, expressed in mm.

[4] = test system: multiple myeloma; conditions: background statement; cited from earlier work

For `O=C(C=C(C(=O)O)C(P(=O)(O)O)P(=O)(O)O)NC(Cc1ccc(N(CCCl)CCCl)cc1)C(=O)O` (stereo not drawn) [compound (B)], the tumor infiltration score ([1]; Backbone (soft tissues), (B) oO mg/kg) was “-”, the tumor infiltration score ([1]; Backbone, (B) oO mg/kg) was “-” and the tumor infiltration score ([1]; Hind limbs (soft tissues), (B) oO mg/kg) was “-”. The tumor infiltration score ([1]; Hind limbs, (B) oO mg/kg) was “-”, the tumor infiltration score ([1]; Kidneys, (B) oO mg/kg) was “+” and the tumor infiltration score ([1]; Sternum, (B) oO mg/kg) was “-”. The “effect on the tumor infiltration (in words)” value [1] was “selective inhibitory effect on the tumor infiltration”, the “TMS (MST = Mean Survival Time in days from the tumor inoculation)” value ([2]; 60 mg/kg) was 70 days and the Tox ([2]; 60 mg/kg) was 1/6. The “TWI % (tumor weight inhibition %)” value ([3]; 20 mg/kg) was 89% and the Tox ([3]; 20 mg/kg) was 0/8.

With `N[C@@H](Cc1ccc(N(CCCl)CCCl)cc1)C(=O)O` [melphalan] the tumor infiltration score ([1]; Backbone (soft tissues), melfalan 6 mg/kg) was “-”, the tumor infiltration score ([1]; Backbone, melfalan 6 mg/kg) was “+” and the tumor infiltration score ([1]; Hind limbs (soft tissues), melfalan 6 mg/kg) was “-”. The tumor infiltration score ([1]; Hind limbs, melfalan 6 mg/kg) was “+”, the tumor infiltration score ([1]; Kidneys, melfalan 6 mg/kg) was “-” and the tumor infiltration score ([1]; Sternum, melfalan 6 mg/kg) was “+”. For the same compound, the “effect on the tumor infiltration (in words)” value [1] was “cannot be seen”, the “activity against the multiple myeloma (in words)” value [4] was “exploits activity against the multiple myeloma” and the “cure of the secondary bone tumor (in words)” value [4] was “not able to cure the secondary bone tumor”. For the same compound, the “TMS (MST = Mean Survival Time in days from the tumor inoculation)” value ([2]; 6 mg/kg) was 59 days, the Tox ([2]; 6 mg/kg) was 1/5 and the “TWI % (tumor weight inhibition %)” value ([3]; 2.8 mg/kg) was 71%. For the same compound, the Tox ([3]; 2.8 mg/kg) was 11/144.
